Source: patent publication US20230295234A1, “ANTIMICROBIAL PEPTIDOMIMETICS” (SPEXIS AG, priority 2020, published 2023)
Bridge positions count the residues as written; N and C are the ends. Square brackets hold non-standard residues; d marks the D form. Peptide text beside a SMILES is read from it. dDab = NCC[C@@H](N)C(=O)O; Dab = NCC[C@H](N)C(=O)O; Nlys = NCCCCNCC(=O)O

Experiments:
[1] = system: Escherichia coli ATCC 25922; details: ATCC 25922
How it was run: (§1)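 Standardized inocula (0.5 McFarland in saline, then diluted in MHII broth to approximately 5×10^5 CFU/mL) were exposed to two-fold dilution series of each peptide in the presence of polysorbate 80 (0.002% final).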

[2] = system: Escherichia coli MCR-1 Af 45; details: MCR-1 Af 45
How it was run: as §1

[3] = system: Klebsiella pneumoniae SSI3010; details: SSI3010
How it was run: as §1

[4] = system: human red blood cells (hRBC); assay: Hemolysis of human red blood cells; format: cell-based; details: red cells of human, 1 h
How it was run: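 Percent hemolysis is OD540 of peptide-treated supernatant relative to water-lysed cells. Each peptide was tested at 200 μg/mL against 20% (v/v) washed human erythrocytes. Incubation was 1 h at 37 °C, 300 rpm.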

| Compound | Escherichia coli ATCC 25922 MIC [1] | Escherichia coli MCR-1 Af 45 MIC [2] | Klebsiella pneumoniae SSI3010 MIC [3] | Hemolysis at 0.2 g/L [4] |
| --- | --- | --- | --- | --- |
| CC[C@H](C)[C@H](NC(=O)[C@@H](NC(=O)[C@@H]1CCCN1C(=O)[C@@H](NC(=O)[C@@H]1CCCN1C(=O)[C@H](CCCCN)NC(=O)[C@@H](N)CCCCN)C(C)C)[C@@H](C)CC)C(=O)N[C@@H](Cc1ccc(O)cc1)C(=O)N[C@H]1CSSC[C@@H](C(=O)N[C@@H](CCN)C(=O)N[C@@H](CCCNC(=N)N)C(=O)N[C@@H](Cc2ccc(O)cc2)C(=O)O)NC(=O)[C@H](CCCCN)NC(=O)[C@@H](CCN)NC(=O)[C@H]([C@@H](C)O)NC(=O)CN(CCCCN)C(=O)[C@H](CCCNC(=N)N)NC(=O)[C@H](CC(N)=O)NC1=O [Example 105] (HELM PEPTIDE1{K.K.P.V.P.I.I.Y.C.N.R.[NCCCCN(CC(=O)[*:2])[*:1]].T.[NCC[C@@H](N[*:1])C(=O)[*:2]].K.C.[Dab].R.Y}$PEPTIDE1,PEPTIDE1,9:R3-16:R3$$$V2.0) | 0.125 µg/mL | 0.0625 µg/mL | 0.125 µg/mL | 0% |
| CC[C@H](C)[C@H](NC(=O)[C@@H](NC(=O)[C@@H]1CCCN1C(=O)[C@@H](NC(=O)[C@@H]1CCCN1C(=O)[C@H](CCCCN)NC(=O)[C@@H](N)CCCCN)C(C)C)[C@@H](C)CC)C(=O)N[C@@H](Cc1ccc(O)cc1)C(=O)N[C@H]1CSSC[C@@H](C(=O)N[C@@H](CCN)C(=O)N[C@@H](CCCNC(=N)N)C(=O)N[C@@H](Cc2ccc(O)cc2)C(=O)O)NC(=O)[C@H](CCCCN)NC(=O)[C@@H](CCN)NC(=O)[C@H]([C@@H](C)O)NC(=O)CN(CCCN)C(=O)[C@H](CCCNC(=N)N)NC(=O)[C@H](CC(N)=O)NC1=O [Example 106] (HELM PEPTIDE1{K.K.P.V.P.I.I.Y.C.N.R.[NCCCN(CC(=O)[*:2])[*:1]].T.[NCC[C@@H](N[*:1])C(=O)[*:2]].K.C.[Dab].R.Y}$PEPTIDE1,PEPTIDE1,9:R3-16:R3$$$V2.0; N-terminus assumed) | 0.25 µg/mL | 0.125 µg/mL | 0.125 µg/mL | 0% |
| CC[C@H](C)[C@H](NC(=O)[C@@H](NC(=O)[C@@H]1CCCN1C(=O)[C@@H](NC(=O)[C@@H]1CCCN1C(=O)[C@H](CCCCN)NC(=O)[C@@H](N)CCCCN)C(C)C)[C@@H](C)CC)C(=O)N[C@@H](Cc1ccc(O)cc1)C(=O)N[C@H]1CSSC[C@@H](C(=O)N[C@@H](CCN)C(=O)N[C@@H](CCCNC(=N)N)C(=O)N[C@@H](Cc2ccc(O)cc2)C(=O)O)NC(=O)[C@H](CCCCN)NC(=O)[C@@H](CCN)NC(=O)[C@H]([C@@H](C)O)NC(=O)CN(CCN)C(=O)[C@H](CCCNC(=N)N)NC(=O)[C@H](CC(N)=O)NC1=O [Example 107] (HELM PEPTIDE1{K.K.P.V.P.I.I.Y.C.N.R.[NCCN(CC(=O)[*:2])[*:1]].T.[NCC[C@@H](N[*:1])C(=O)[*:2]].K.C.[Dab].R.Y}$PEPTIDE1,PEPTIDE1,9:R3-16:R3$$$V2.0; N-terminus assumed) | 0.25 µg/mL | 0.25 µg/mL | 0.25 µg/mL | 0% |
| CC[C@H](C)[C@H](NC(=O)[C@@H](NC(=O)[C@@H]1CCCN1C(=O)[C@@H](NC(=O)[C@@H]1CCCN1C(=O)[C@H](CCCCN)NC(=O)[C@@H](N)CCCCN)C(C)C)[C@@H](C)CC)C(=O)N[C@@H](Cc1ccc(O)cc1)C(=O)N[C@H]1CSSC[C@@H](C(=O)N[C@@H](CCN)C(=O)N(CCCN)CC(=O)N[C@@H](Cc2ccc(O)cc2)C(=O)O)NC(=O)[C@H](CCCCN)NC(=O)[C@@H](CCN)NC(=O)[C@H]([C@@H](C)O)NC(=O)[C@H](CCN)NC(=O)[C@H](CCCNC(=N)N)NC(=O)[C@H](CC(N)=O)NC1=O [Example 108] (HELM PEPTIDE1{K.K.P.V.P.I.I.Y.C.N.R.[Dab].T.[NCC[C@@H](N[*:1])C(=O)[*:2]].K.C.[Dab].[NCCCN(CC(=O)[*:2])[*:1]].Y}$PEPTIDE1,PEPTIDE1,9:R3-16:R3$$$V2.0) | 0.125 µg/mL | ≤0.03125 µg/mL | 0.0625 µg/mL | 0% |
| CC[C@H](C)[C@H](NC(=O)[C@@H](NC(=O)[C@@H]1CCCN1C(=O)[C@@H](NC(=O)[C@@H]1CCCN1C(=O)[C@H](CCCCN)NC(=O)[C@@H](N)CCCCN)C(C)C)[C@@H](C)CC)C(=O)N[C@@H](Cc1ccc(O)cc1)C(=O)N[C@H]1CSSC[C@@H](C(=O)N[C@@H](CCN)C(=O)N(CCCCN)CC(=O)N[C@@H](Cc2ccc(O)cc2)C(=O)O)NC(=O)[C@H](CCCCN)NC(=O)[C@@H](CCN)NC(=O)[C@H]([C@@H](C)O)NC(=O)[C@H](CCN)NC(=O)[C@H](CCCNC(=N)N)NC(=O)[C@H](CC(N)=O)NC1=O [Example 109] (HELM PEPTIDE1{K.K.P.V.P.I.I.Y.C.N.R.[Dab].T.[NCC[C@@H](N[*:1])C(=O)[*:2]].K.C.[Dab].[NCCCCN(CC(=O)[*:2])[*:1]].Y}$PEPTIDE1,PEPTIDE1,9:R3-16:R3$$$V2.0) | 0.0625 µg/mL | 0.0625 µg/mL | 0.125 µg/mL | 0% |
| CC[C@H](C)[C@H](NC(=O)[C@@H](NC(=O)[C@@H]1CCCN1C(=O)[C@@H](NC(=O)[C@@H]1CCCN1C(=O)[C@H](CCCCN)NC(=O)[C@@H](N)CCCCN)C(C)C)[C@@H](C)CC)C(=O)N[C@@H](Cc1ccc(O)cc1)C(=O)N[C@H]1CSSC[C@@H](C(=O)N[C@@H](CCN)C(=O)N(CCN)CC(=O)N[C@@H](Cc2ccc(O)cc2)C(=O)O)NC(=O)[C@H](CCCCN)NC(=O)[C@@H](CCN)NC(=O)[C@H]([C@@H](C)O)NC(=O)[C@H](CCN)NC(=O)[C@H](CCCNC(=N)N)NC(=O)[C@H](CC(N)=O)NC1=O [Example 110] (HELM PEPTIDE1{K.K.P.V.P.I.I.Y.C.N.R.[Dab].T.[NCC[C@@H](N[*:1])C(=O)[*:2]].K.C.[Dab].[NCCN(CC(=O)[*:2])[*:1]].Y}$PEPTIDE1,PEPTIDE1,9:R3-16:R3$$$V2.0) | 0.125 µg/mL | 0.125 µg/mL | 0.125 µg/mL | 0% |
| CC[C@H](C)[C@H](NC(=O)[C@@H](NC(=O)[C@@H]1CCCN1C(=O)[C@@H](NC(=O)[C@@H]1CCCN1C(=O)[C@H](CCCCN)NC(=O)[C@@H](N)CCCCN)C(C)C)[C@@H](C)CC)C(=O)N[C@@H](Cc1ccc(O)cc1)C(=O)N[C@H]1CSSC[C@@H](C(=O)N[C@@H](CCN)C(=O)N(CCCNC(=N)N)CC(=O)N[C@@H](Cc2ccc(O)cc2)C(=O)O)NC(=O)[C@H](CCCCN)NC(=O)[C@@H](CCN)NC(=O)[C@H]([C@@H](C)O)NC(=O)[C@H](CCN)NC(=O)[C@H](CCCNC(=N)N)NC(=O)[C@H](CC(N)=O)NC1=O [Example 111] (HELM PEPTIDE1{K.K.P.V.P.I.I.Y.C.N.R.[Dab].T.[NCC[C@@H](N[*:1])C(=O)[*:2]].K.C.[Dab].[N=C(N)NCCCN(CC(=O)[*:2])[*:1]].Y}$PEPTIDE1,PEPTIDE1,9:R3-16:R3$$$V2.0; N-terminus assumed) | 0.25 µg/mL | 0.125 µg/mL | 0.25 µg/mL | 0% |
| CC[C@H](C)[C@H](NC(=O)[C@@H](NC(=O)[C@@H]1CCCN1C(=O)[C@@H](NC(=O)[C@@H]1CCCN1C(=O)[C@H](CCCCN)NC(=O)CNCCCCN)C(C)C)[C@@H](C)CC)C(=O)N[C@@H](Cc1ccc(O)cc1)C(=O)N[C@H]1CSSC[C@@H](C(=O)N[C@@H](CCN)C(=O)N[C@@H](CCCNC(=N)N)C(=O)N[C@@H](Cc2ccc(O)cc2)C(=O)O)NC(=O)[C@H](CCCCN)NC(=O)[C@@H](CCN)NC(=O)[C@H]([C@@H](C)O)NC(=O)CN(CCCCN)C(=O)[C@H](CCCNC(=N)N)NC(=O)[C@H](CC(N)=O)NC1=O [Example 112] (H-[Nlys]KPVPIIYCNR[Nlys]T[dDab]KC[Dab]RY-OH; disulfide 9-16) | 0.25 µg/mL | 0.25 µg/mL | 0.125 µg/mL | 0% |
| CC[C@H](C)[C@H](NC(=O)[C@@H](NC(=O)[C@@H]1CCCN1C(=O)[C@@H](NC(=O)[C@@H]1CCCN1C(=O)[C@H](CCCCN)NC(=O)CNCCN)C(C)C)[C@@H](C)CC)C(=O)N[C@@H](Cc1ccc(O)cc1)C(=O)N[C@H]1CSSC(C)(C)[C@@H](C(=O)N[C@@H](CCN)C(=O)N[C@@H](CCCNC(=N)N)C(=O)N[C@@H](Cc2ccc(O)cc2)C(=O)O)NC(=O)[C@H](CCCCN)NC(=O)[C@@H](CCN)NC(=O)[C@H]([C@@H](C)O)NC(=O)[C@H](CCN)NC(=O)[C@H](CCCNC(=N)N)NC(=O)[C@H](CC(N)=O)NC1=O [Example 113] (HELM PEPTIDE1{[NCCNCC(=O)[*:2]].K.P.V.P.I.I.Y.C.N.R.[Dab].T.[NCC[C@@H](N[*:1])C(=O)[*:2]].K.[Pen].[Dab].R.Y}$PEPTIDE1,PEPTIDE1,9:R3-16:R3$$$V2.0) | 0.0625 µg/mL | 0.125 µg/mL | 0.125 µg/mL | 0% |
